Reference: patent US20240116985A1, “STAPLED PEPTIDES AND METHODS THEREOF” (priority 2020, published 2024)

Experiment: CHI Log D procedure
Assay type: physicochemical
Settings: pH 7.4
In the case of `CC(=O)N[C@@H](Cc1ccccc1)C(=O)N[C@@H](CC(=O)O)C(=O)N[C@@H](C)C(=O)NC12CN(C1)C(=O)OCC=CCCCCC[C@@](C)(C(=O)N[C@@H](Cc1ccccc1)C(=O)N[C@@H](Cc1c[nH]c3ccccc13)C(=O)N[C@@H](CCC(N)=O)C(N)=O)NC(=O)[C@H](C(C)C)NC(=O)[C@H](Cc1ccccc1)NC(=O)[C@H](C)NC(=O)[C@H](C)NC(=O)[C@H](CC(=O)O)NC(=O)[C@H](CC(=O)O)NC2=O` [I-32, Ac-Phe-Asp-Ala-Az-Asp-Asp-Ala-Ala-Phe-Val-S7-Phe-Trp-Gln-NH2], the “CHI Log D” value is reported as 1.243.
For `CCCC[C@@H]1NC(=O)[C@H](CC(=O)O)NC(=O)[C@](C)(NC(=O)[C@H](C)NC(=O)[C@H](CC(=O)O)NC(=O)[C@H](Cc2ccccc2)NC(C)=O)CCCCCCC=CCOC(=O)N2CC[C@@](C(=O)N[C@@H](Cc3ccccc3)C(=O)N[C@@H](Cc3c[nH]c4ccccc34)C(=O)N[C@@H](CCC(N)=O)C(N)=O)(C2)NC(=O)[C@H](C(C)C)NC(=O)[C@H](Cc2ccccc2)NC(=O)[C@H](C)NC(=O)[C@H](C)NC1=O` [I-14, Ac-Phe-Asp-Ala-R8-Asp-nLeu-Ala-Ala-Phe-Val-PyrS-Phe-Trp-Gln-NH2], the “CHI Log D” value was 2.013.
With `CC(=O)N1CCC[C@]12CC=CCCCC1(CCCC=CCCCCCC[C@@](C)(C(=O)N[C@@H](Cc3ccccc3)C(=O)N[C@@H](Cc3c[nH]c4ccccc34)C(=O)N[C@@H](CCC(N)=O)C(N)=O)NC(=O)[C@H](C(C)C)NC(=O)[C@H](Cc3ccccc3)NC(=O)[C@H](C)NC(=O)[C@H](C)NC(=O)[C@H](CC(=O)O)NC(=O)[C@H](CCC(=O)O)NC1=O)NC(=O)[C@H](C)NC(=O)[C@H](CC(=O)O)NC2=O` (stereo partly drawn) [I-281, Ac-PL3-Asp-Ala-B5-Glu-Asp-Ala-Ala-Phe-Val-S8-Phe-Trp-Gln-NH2] the “CHI Log D” value was 2.2.
With `CC(=O)N1CCC[C@]12CC=CCCCC1(CCCC=CCCCCCC[C@@](C)(C(=O)N[C@@H](Cc3ccccc3)C(=O)N[C@@H](Cc3c[nH]c4ccccc34)C(=O)N[C@@H](CCC(N)=O)C(N)=O)NC(=O)[C@H](C(C)C)NC(=O)[C@H](Cc3cccc(F)c3)NC(=O)[C@H](C)NC(=O)[C@H](C)NC(=O)[C@H](CC(=O)O)NC(=O)[C@H](CC(=O)O)NC1=O)NC(=O)[C@H](C)NC(=O)[C@H](CC(=O)O)NC2=O` (stereo partly drawn) [I-264, Ac-PL3-Asp-Ala-B5-Asp-Asp-Ala-Ala-3FF-Val-S8-Phe-Trp-Gln-NH2] the “CHI Log D” value was 2.011.
In the case of `CC(=O)N[C@@H](Cc1ccccc1)C(=O)N[C@@H](CC(=O)O)C(=O)N[C@@H](C)C(=O)N[C@]1(C)CCCCCCC=CCOC(=O)N2CC[C@@](C(=O)N[C@@H](Cc3ccc(O)cc3)C(=O)N[C@@H](Cc3c[nH]c4ccccc34)C(=O)N[C@@H](CCC(N)=O)C(N)=O)(C2)NC(=O)[C@H](C(C)C)NC(=O)[C@H](Cc2ccccc2)NC(=O)[C@H](C)NC(=O)[C@H](C)NC(=O)[C@H](CC(=O)O)NC(=O)[C@H](CC(=O)O)NC1=O` (single isomer, unassigned) [I-63, Ac-Phe-Asp-Ala-R8-Asp-Asp-Ala-Ala-Phe-Val-PyrS-Tyr-Trp-Gln-NH2], the “CHI Log D” value is reported as 1.019.
With `CC[C@H](C)[C@H](NC(=O)[C@H](CC(=O)O)NC(=O)[C@H](C)NC(C)=O)C(=O)N[C@]1(C)CCN(C)C(=O)OCC=CCCCCC[C@@](C)(C(=O)N[C@@H](Cc2ccccc2)C(=O)N[C@@H](Cc2c[nH]c3ccccc23)C(=O)N[C@@H](Cc2c[nH]cn2)C(N)=O)NC(=O)[C@H](CCC(N)=O)NC(=O)[C@H](Cc2ccccc2)NC(=O)[C@H](C)NC(=O)[C@H](C)NC(=O)[C@H](CCC(C)C)NC(=O)[C@H](CC(=O)O)NC1=O` (single isomer, unassigned) [I-71, Ac-Ala-Asp-Ile-RdN-Asp-hLeu-Ala-Ala-Phe-Gln-S7-Phe-Trp-His-NH2] the “CHI Log D” value was 1.686.
With `CC(=O)N1CCC[C@]12CC=CCCCC1(CCCC=CCCCCCC[C@@](C)(C(=O)N[C@@H](Cc3ccccc3)C(=O)N[C@@H](Cc3csc4ccccc34)C(=O)N(C)[C@@H](Cc3cnc[nH]3)C(N)=O)NC(=O)[C@H](CC(N)=O)NC(=O)[C@H](Cc3ccccc3)NC(=O)[C@H](C)NC(=O)[C@H](C)NC(=O)[C@H](CCC(=O)O)NC(=O)[C@H](CC(=O)O)NC1=O)NC(=O)[C@H](CC(C)C)NC(=O)[C@H](CC(=O)O)NC2=O` (stereo partly drawn) [I-746, Ac-PL3-Asp-Leu-B5-Asp-Glu-Ala-Ala-Phe-Asn-S8-Phe-BztA-NMeHis-NH2] the “CHI Log D” value was 2.372.
In the case of `CC(=O)N1CCC[C@]12CC=CCCCC1(CCCC=CCCCCCC[C@@](C)(C(=O)N[C@@H](Cc3ccccc3)C(=O)N[C@@H](Cc3c[nH]c4ccccc34)C(=O)N[C@@H](CCC(N)=O)C(N)=O)NC(=O)[C@H](C(C)C)NC(=O)[C@H](Cc3cccc(Cl)c3)NC(=O)[C@H](C)NC(=O)[C@H](C)NC(=O)[C@H](CC(=O)O)NC(=O)[C@H](CC(=O)O)NC1=O)NC(=O)[C@H](C)NC(=O)[C@H](CC(=O)O)NC2=O` (stereo partly drawn) [I-306, Ac-PL3-Asp-Ala-B5-Asp-Asp-Ala-Ala-3C1F-Val-S8-Phe-Trp-Gln-NH2], the “CHI Log D” value is reported as 2.03.

Same assay, conditions: pH 7.4, CHI Log D
`CC(=O)N1CCC[C@]12CC=CCCCC1(CCCC=CCCCCCC[C@@](C)(C(=O)N[C@@H](Cc3ccccc3)C(=O)N[C@@H](Cc3c[nH]c4ccccc34)C(=O)N[C@@H](CCC(N)=O)C(N)=O)NC(=O)[C@H](C(C)C)NC(=O)[C@H](Cc3ccccc3)NC(=O)[C@H](C)NC(=O)[C@H](C)NC(=O)[C@H](CCC(=O)O)NC(=O)[C@H](CC(=O)O)NC1=O)NC(=O)[C@H](C)NC(=O)[C@H](Cc1cccc(F)c1)NC2=O` (stereo partly drawn) [I-204, Ac-PL3-3FF-Ala-B5-Asp-Glu-Ala-Ala-Phe-Val-S8-Phe-Trp-Gln-NH2] showed a chromatographic logD of 2.98.
For `CC(=O)N1CCC[C@]12CC=CCCCC1(CCCC=CCCCCCC[C@@](C)(C(=O)N[C@@H](Cc3ccccc3)C(=O)N[C@@H](Cc3c[nH]c4ccccc34)C(=O)N[C@@H](CO)C(N)=O)NC(=O)[C@H](CO)NC(=O)[C@H](Cc3ccccc3)NC(=O)[C@H](C)NC(=O)[C@H](C)NC(=O)[C@H](CC(=O)O)NC(=O)[C@H](CC(=O)O)NC1=O)NC(=O)[C@H](C)NC(=O)[C@H](CC(=O)O)NC2=O` (stereo partly drawn) [I-333, Ac-PL3-Asp-Ala-B5-Asp-Asp-Ala-Ala-Phe-Ser-S8-Phe-WCHO-Ser-NH2], the logD was 2.12.
Work on `CC(=O)N[C@@H](Cc1ccccc1)C(=O)N[C@@H](CC(=O)O)C(=O)N[C@@H](C)C(=O)N[C@]1(C)CCCC=CCOC(=O)N(C)CC[C@@](C)(C(=O)N[C@@H](Cc2ccccc2)C(=O)N[C@@H](Cc2c[nH]c3ccccc23)C(=O)N[C@@H](CCC(N)=O)C(N)=O)NC(=O)[C@H](C(C)C)NC(=O)[C@H](Cc2ccccc2)NC(=O)[C@H](C)NC(=O)[C@H](C)NC(=O)[C@H](CC(=O)O)NC(=O)[C@H](CC(=O)O)NC1=O` [I-37, Ac-Phe-Asp-Ala-R5-Asp-Asp-Ala-Ala-Phe-Val-SdN-Phe-Trp-Gln-NH2] yielded a chromatographic logD of 1.16.
`CC(=O)N[C@@H](Cc1ccccc1)C(=O)N[C@@H](CC(=O)O)C(=O)N[C@@H](C)C(=O)N[C@]1(C)CCN(C)C(=O)OCC=CCCCCC[C@@](C)(C(=O)N[C@@H](Cc2ccccc2)C(=O)N[C@@H](Cc2c[nH]c3ccccc23)C(=O)N[C@@H](CCC(N)=O)C(N)=O)NC(=O)[C@H](C(C)C)NC(=O)[C@H](Cc2ccccc2)NC(=O)[C@H](C)NC(=O)[C@H](C)NC(=O)[C@H](CC(=O)O)NC(=O)[C@H](CC(=O)O)NC1=O` (single isomer, unassigned) [I-1, Ac-Phe-Asp-Ala-RdN-Asp-Asp-Ala-Ala-Phe-Val-S7-Phe-Trp-Gln-NH2] showed a chromatographic logD of 1.27.
For `CC(=O)N1CCC[C@]12CC=CCCCC1(CCCC=CCCCCCC[C@@](C)(C(=O)N[C@@H](Cc3ccccc3)C(=O)N[C@@H](Cc3csc4ccccc34)C(=O)N[C@@H](CCC(N)=O)C(N)=O)NC(=O)[C@H](C(C)C)NC(=O)[C@H](Cc3ccccc3)NC(=O)[C@H](C)NC(=O)[C@H](C)NC(=O)[C@H](Cc3ccc4ccccc4n3)NC(=O)[C@H](CC(=O)O)NC1=O)NC(=O)[C@H](C)NC(=O)[C@H](CC(=O)O)NC2=O` (stereo partly drawn) [I-300, Ac-PL3-Asp-Ala-B5-Asp-Qui-Ala-Ala-Phe-Val-S8-Phe-BztA-Gln-NH2], the chromatographic logD was 2.82.
Work on `CC(=O)N[C@@H](Cc1ccccc1)C(=O)N[C@@H](CC(=O)O)C(=O)N[C@@H](C)C(=O)N[C@]1(C)CCCCCCC=CCOC(=O)N2CC[C@@](C(=O)N[C@@H](Cc3ccccc3)C(=O)N[C@@H](Cc3c[nH]c4ccccc34)C(=O)N[C@@H](CCC(N)=O)C(N)=O)(C2)NC(=O)[C@H](C(C)C)NC(=O)[C@H](Cc2ccccc2)NC(=O)[C@H](C)NC(=O)[C@H](C)NC(=O)[C@H](CCC(N)=O)NC(=O)[C@H](CC(=O)O)NC1=O` (single isomer, unassigned) [I-58, Ac-Phe-Asp-Ala-R8-Asp-Gln-Ala-Ala-Phe-Val-PyrS-Phe-Trp-Gln-NH2] yielded a chromatographic logD of 1.5.
`CC(=O)N1CCC[C@]12CC=CCCCC1(CCCC=CCCCCCC[C@@](C)(C(=O)N[C@@H](Cc3c(F)c(F)c(F)c(F)c3F)C(=O)N[C@@H](Cc3csc4ccccc34)C(=O)N[C@@H](CCC(N)=O)C(N)=O)NC(=O)[C@H](C(C)C)NC(=O)[C@H](Cc3ccccc3)NC(=O)[C@H](C)NC(=O)[C@H](C)NC(=O)[C@H](CC(=O)O)NC(=O)[C@H](CC(=O)O)NC1=O)NC(=O)[C@H](C)NC(=O)[C@H](CC(=O)O)NC2=O` (stereo partly drawn) [I-302, Ac-PL3-Asp-Ala-B5-Asp-Asp-Ala-Ala-Phe-Val-S8-pff-BztA-Gln-NH2] gave a chromatographic logD of 2.38.
`CC(=O)N[C@@H](Cc1ccccc1)C(=O)N[C@@H](CC(=O)O)C(=O)N[C@@H](C)C(=O)N[C@]1(C)CCCCCCC=CCOC(=O)N(C)C[C@@](C)(C(=O)N[C@@H](Cc2ccccc2)C(=O)N[C@@H](Cc2c[nH]c3ccccc23)C(=O)N[C@@H](CCC(N)=O)C(N)=O)NC(=O)[C@H](C(C)C)NC(=O)[C@H](Cc2ccccc2)NC(=O)[C@H](C)NC(=O)[C@H](C)NC(=O)[C@H](CC(=O)O)NC(=O)[C@H](CC(=O)O)NC1=O` [I-34, Ac-Phe-Asp-Ala-R8-Asp-Asp-Ala-Ala-Phe-Val-SgN-Phe-Trp-Gln-NH2] showed a chromatographic logD of 1.32.
Compound `CC[C@H](C)[C@H](NC(=O)[C@H](CC(=O)O)NC(=O)[C@H](C)NC(C)=O)C(=O)N[C@]1(C)CCN(C)C(=O)OCC=CCCCCC[C@@](C)(C(=O)N[C@@H](Cc2ccccc2)C(=O)N[C@@H](Cc2c[nH]c3ccccc23)C(=O)N[C@@H](Cc2c[nH]cn2)C(N)=O)NC(=O)[C@H](CCC(N)=O)NC(=O)[C@H](Cc2ccccc2)NC(=O)[C@H](C)NC(=O)[C@H](C)NC(=O)[C@H](CC2CCCCC2)NC(=O)[C@H](CC(=O)O)NC1=O` (single isomer, unassigned) [I-72, Ac-Ala-Asp-Ile-RdN-Asp-Cha-Ala-Ala-Phe-Gln-S7-Phe-Trp-His-NH2] has a chromatographic logD of 1.72.
